From patent EP0366638A2, “Neuromodulatory peptide” (KabiGen AB, priority 1988, dated 1990)

How the values were obtained:
[1] = test system: cortical brain slices; assay: release of acetylcholine from cortical brain slices; format: cell-based; settings: following depolarization, Fig. 1
Description: The tripeptide resulting from the manufacture according to Example 1 above was used in a test system according to L. Nilsson, V.R. Sara and A. Nordberg, Neurosience Letters, 1988, Vol. 88, pp 221-226. This test procedure is based on stimulation of the release of acetylcholine from cortical brain slices.

[2] = test system: cortical neurones; assay: modulation of the electrophysiological activity of cortical neurones (microiontophoresis and pressure ejection procedure); settings: Fig. 2
Description: The tripeptide from Example 1 above was used in modulation of the electrophysiological activity of cortical neurones, and the results of this experiment is illustrated in Fig. 2. […] In this experiment the procedure according to T.W. Stone (Ed.), "Microiontophonesis and pressure ejection", John Wiley & Sons, New York, 1985 was used.

[3] = test system: spinal cord; assay: electrophysiological reflex response in the spinal cord; format: in vivo
Description: The result of these experiments is shown in Fig. 3, from which it is clear that the tripeptide increases both the peak and the duration of the reflex response.

SMILES: NCC(=O)N1CCC[C@H]1C(=O)N[C@@H](CCC(=O)O)C(=O)O [tripeptide, glycylprolylglutamic acid]
- release of acetylcholine from neurones [1]: inhance the release of acetylcholine
- neural response to neurotransmitters ([2]; cortical neurones): modulates
- cortical neurone activity ([2]; electrophysiological activity): both stimulates and inhibits
- duration of the reflex response ([3]; Fig. 3): increases
- peak of the reflex response ([3]; Fig. 3): increases
- electrophysiological reflex response in the spinal cord ([3]; in vivo): facilitate
